Strand notation (5' to 3'): a small letter for the sugar, then the base; units joined by * are phosphorothioate-linked, units joined directly phosphodiester-linked; [ ] holds rarer units or linkages, { } end groups; capitals alone tell only the bases. d = 2'-deoxy (DNA)
What was measured:
[1] = tested on: HBV genomes in the supernatants from HepG2.2.15 cells; experiment: Kinetic PCR HBV anti-viral assay on supernatants from HepG2.2.15 cells; format: cell-based, hepatitis B virus; conditions: copy number of HBV genomes in HepG2.2.15 supernatants, day 10
Description: In addition to Southern hybridizations, kinetic PCR was performed to assay the supernatants from the HepG2.2.15 cells. This procedure was carried out as described by Higuchi et al. (Biotechnol. (1993) 11:1026–1030). All PCRs were carried out with two sets of external controls which consisted of a dilution series of a known concentration of plasmid DNA that contained the HBV core gene amplified with the same primer set. These controls generated a standard curve that was used to calculate the copy number of HBV genomes in the supernatants from cells exposed to the various dilutions of compound.
The anti-viral assay was performed using HepG 2.2.15 cells (Sells et al. ([…]) Proc. Natl. Acad. Sci. (USA) 84:1005–1009) seeded at a density of 1×10^5 per well in 24 well plates. The cells were grown to confluence and allowed to stabilize for 2–3 days in RPMI media (supplemented with 10% fetal calf serum (FCS), 2 mM glutamine and penstrep (Life Technologies Ltd., Paisley, Scotland) prior to the addition of the oligonucleotide (defined as day 0). Six dilutions (10, 5, 1, 0.5, 0.1, and 0 μM) were set up in duplicate for each of the antisense oligonucleotides. In each assay run, the nucleoside analog, β-L-(2R,5S)-1,3 oxathiolanyl cytosine (3TC) (Glaxo, Greenford, U.K.) was included as positive control at 0.5, 0.1, 0.075, 0.05, and 0.01 and 0 μM in duplicate. Oligonucleotide was added to 1 ml of RPMI media (supplemented with 3% FCS, 2 mM glutamine and penstrep) at each of the indicated dilutions. At days 2, 4 and 7, the old media was removed and replaced with fresh media containing compound. At day 10, the supernatants were harvested, clarified by low speed centrifugation, prior to the addition of Triton X100 (Sigma, St. Louis, Mo.) and tri-n-butyl phosphate to give a final concentration of 1%. The samples were then heated to 70° C. for 20 minutes to disrupt the viral particles.
Following this treatment, the viral particles were subject to analysis by kinetic PCR. The primers RJ407 (SEQ ID NO:51) and RJ431 (SEQ ID NO:52) were used to detect a 205 bp fragment of the core gene. Kinetic PCR was performed essentially as described by Higuchi et al. (Biotechnol. (1993) 11:1026–1030). Briefly, the PCR reactions were set up under standard conditions except that ethidium bromide was included at a concentration of 4 μg/ml. […] A kinetic PCR analysis was performed by plotting the average intensity of fluorescence from each PCR sample after each annealing/extension cycle against the cycle number. The original template concentration can be calculated by utilizing a standard fluorescence curve generated by templates of known concentration.

[2] = tested on: In vitro transcribed HBV RNA (adw strain); experiment: RNase H cleavage assay with contiguous oligodeoxynucleotide phosphorothioates (FIG. 2); format: biochemical, hepatitis B virus; conditions: end-labelled HBV RNA (adw), regions found with random 20mer library
Description: To determine whether an oligonucleotide of the invention is capable of successfully hybridizing to its target, an RNase H assay was performed (Frank et al. (1993) Proc. Int. Conf. Nucleic Acid Med. Applns. 1:4.14(abstract)). This assay is useful when a region of at least four contiguous nucleotides of the oligonucleotide is DNA and the target is RNA. Hybridization of the DNA portion of the oligonucleotide to the RNA target is identified by cleavage at that site by RNase H.
In vitro transcribed HBV RNA (adw strain) was probed for sites accessible to oligonucleotide hybridization using a randomized library of 20 base oligodeoxynucleotides (approximately […]). Hybridization to the RNA was detected by RNase H cleavage of the end-labelled transcript. Three regions were identified by this assay. One region was in the 5′ untranslated region, between 113 and 70 bases upstream from the core initiator, and two regions were in the coding regionfor core, between 78 and 174 bases downstream from the core initiator. Contiguous oligodeoxynucleotide phosphorothioates were prepared against these regions and their ability to activate RNase H cleavage of the transcript measured.
The plasmid pHBVE+was generated by subcloning a StuI, BamHI fragment from the plasmid pAM6 (ATCC Ac. No. 45020, American Type Culture Collection, Rockville, Md.), representing HBV subtype adw nt 1701-nt 34 (GenBank accession # V00866) (Ono et al. (1983) Nucleic Acids Res. 11:1747–1757), into pBluescript II SK(+) (Stratagene, La Jolla, Calif.). […]
In 9 μl 1× RNase H buffer (40 mM Tris-HCl pH 7.4, 4 mM MgCl2, 1 mM DTT), 20–100 nM labelled RNA and 100 nM oligonucleotides were preincubated for 15 min at 37° C. […] The reactions were quenched and analyzed as described above.
Quantitation of the cleavage products was performed using software supplied with the Phosphorimager (Molecular Dynamics, Sunnyvale, Calif., or Bio-Rad Laboratories, Hercules, Calif.). “Counts” were determined by drawing a box around the band of interest and subtracting the background determined with a box drawn nearby. […]

[3] = tested on: HBV subtype ayw polymerase gene-luciferase fusion construct; experiment: Firefly luciferase reporter gene assay in stably transfected HepG2 cells (pol-luciferase fusion); format: cell-based; conditions: versus random 20mer PS negative control, FIG. 9
Description: Oligonucleotides targeted to the polymerase translation initiation region were also tested in mammalian cells using a firefly luciferase reporter gene assay. The 35 nucleotide region spanning the translation start site of the HBV ayw polymerase gene from nt 2294–2328 was cloned 5′ to, and in frame with, the entire open reading frame of the firefly luciferase gene in the plasmid pGLori, to produce the plasmid pGLpol (FIG. 10). Transcription of this pol-luciferase gene fusion was placed under the control of the cytomegalovirus early gene promoter. Expression of the pol-luciferase fusion in mammalian cells was quantified in a luminometer by addition of luciferin substrate and ATP cofactor to cell lysates. In all cellular antisense assays, a random sequence 20mer phosphorothioate oligonucleotide (random 20mer PS) was used as a negative control. […]
Stably transfected HepG2 cells were seeded into 96 well plates. […] Cells were washed twice with Dulbecco's phosphate-buffered saline (PBS) and lysed in 50 μl cell lysis buffer (Analytical Luminescence Laboratory, San Diego, Calif.). Luciferase activity was measured in 20 μl lysate using Analytical Luminescence Laboratory substrates in a MicroLumat LB 96 P luminometer (EG&G Berthold, Nashua, N.H.).

Sequence | IC50 [1] | ability to activate RNase H cleavage of the transcript [2] | antisense activity on luciferase expression [3]
GAAAAAGTTGCATGGTGCTG (antisense dG*dA*dA*dA*dA*dA*dG*dT*dT*dG*dC*dA*dT*dG*dG*dT*dG*dC*dT*dG) [HBV44] | 700 nM | single peaks of activity | –
GAGGCGGTGTCTAGGAGATC (antisense dG*dA*dG*dG*dC*dG*dG*dT*dG*dT*dC*dT*dA*dG*dG*dA*dG*dA*dT*dC) [HBV57] | – | single peaks of activity | –
GATAGGGGCATTTGGTGGTC (phosphorothioate, further chemistry not given here) [HBVpol-2] | 3700 nM | – | had sequence-specific antisense activity
GCAGTATGGTGAGGTGAGCA (antisense dG*dC*dA*dG*dT*dA*dT*dG*dG*dT*dG*dA*dG*dG*dT*dG*dA*dG*dC*dA) [HBV41] | – | single peaks of activity | –
GGCATTTGGTGGTCTATAAG (antisense dG*dG*dC*dA*dT*dT*dT*dG*dG*dT*dG*dG*dT*dC*dT*dA*dT*dA*dA*dG) [HBVpol-1] | – | – | had sequence-specific antisense activity
